Patent publication US6413517B1, “Identification of broadly reactive DR restricted epitopes” (Epimmune, Inc., priority 1997, dated 2002)
Where two headings read alike, the source gives them in different places. No end group written: not given here.

Tests used:
[1] = molecular target: T1, DRB1*0301 (DR3w17) (Homo sapiens, UniProt P01903+P01911, A100K/A102G/A103R/A169T/F55Y/I96L/K41T/L162R/M171V/P40S/Q125H/Q178H/Q39Y/R42S/S66N/T106N/T262R/W38E/Y61H); conditions: read-out: Binding Capacity (IC 50% nM) Other Alleles DR3
[2] = molecular target: T2, DRB1*1302 (DR6w19) (Homo sapiens, UniProt P01903+P01911, A100E/A169T/K41T/L162R/M171V/P40S/Q125H/Q178H/Q39Y/Q99D/R42S/S66N/T262R/V115G/W38E/Y61H); test: biochemical; assay type: binding
T2 construct: Epstein-Barr virus (EBV) transformed homozygous cell lines were used as sources; the source of Class II molecules the EBV transformed homozygous cell line H0301; endogenous in cells; host or cells: H0301 (EBV-transformed homozygous B cell line)

[3] = molecular target: T3, DRB1*1101 (DR5w11) (Homo sapiens, UniProt P01903+P01911, A100R/A169T/A87E/I96F/K41T/L162R/M171V/P40S/Q125H/Q178H/Q39Y/Q99D/R42S/S66Y/T262R/V115G/W38E); test: biochemical; assay type: binding
T3 construct: Epstein-Barr virus (EBV) transformed homozygous cell lines were used as sources; endogenous in cells; host or cells: SWEIG (EBV-transformed homozygous B cell line)

[4] = molecular target: T4, DRB1*0101 (DR1) (Homo sapiens, UniProt P01903+P01911, A100R/D57E/F55L/F60I/F76Y/I96L/L162R/M171V/P40L/Q125E/R42F/V115G/Y59C); test: biochemical; assay type: binding
T4 construct: Epstein-Barr virus (EBV) transformed homozygous cell lines were used as sources; endogenous in cells; host or cells: LG2 (EBV-transformed homozygous B cell line)

[5] = molecular target: T5, DRB1*0901 (DR9) (Homo sapiens, UniProt P01903+P01911, A100R/A103E/D57H/D86V/F55Y/F60I/F76Y/I96F/K127E/L162R/M171V/P40D/Q125H/Q99R/R33Q/R42F/S133A/S66N/T210M/V115G/W38K/Y107V/Y59G/Y89S); test: biochemical; assay type: binding
T5 construct: Epstein-Barr virus (EBV) transformed homozygous cell lines were used as sources; endogenous in cells

[6] = molecular target: T6, DRB1*0405 (DR4w15) (Homo sapiens, UniProt P01903+P01911, A100R/A169T/D86S/F76Y/I96L/K127E/L162R/M171V/N62H/P40V/Q125Y/R42H/S133A/S149N/S66Y/V115G/V209L/W38E); test: biochemical; assay type: binding
T6 construct: Epstein-Barr virus (EBV) transformed homozygous cell lines were used as sources; endogenous in cells; host or cells: KT3 (EBV-transformed homozygous B cell line)

[7] = molecular target: T7, DRB1*1201 (DR5w12) (Homo sapiens, UniProt P01903+P01911, A100R/A169T/D57E/D86V/F55L/H45Y/K41T/L162R/M171V/P40S/Q125H/Q178H/Q39Y/Q99D/R42G/S66L/T262R/V114A/V67L/W38E/Y59H/Y61H/Y89S); test: biochemical; assay type: binding
T7 construct: Epstein-Barr virus (EBV) transformed homozygous cell lines were used as sources; endogenous in cells; host or cells: Herluf (EBV-transformed homozygous B cell line)

[8] = molecular target: T1, DRB1*0301 (DR3w17); test: biochemical; conditions: Binding Capacity (IC50% nM) DR3
[9] = molecular target: T8, DRB1*1501 (DR2w2b) (Homo sapiens, UniProt P01903+P01911); test: biochemical; assay type: binding
T8 construct: expressed in transfected cells; host or cells: transfected fibroblasts L466.1

[10] = molecular target: T9, DRB5*0101 (DR2w2a) (Homo sapiens, UniProt P01903+Q30154); test: biochemical; assay type: binding
T9 construct: Epstein-Barr virus (EBV) transformed homozygous cell lines were used as sources; endogenous in cells; host or cells: GM3107 (EBV-transformed homozygous B cell line)

[11] = molecular target: T10, DRB1*0401 (DR4w4) (Homo sapiens, UniProt P01903+P01911, A100K/A169T/F76Y/I96L/K127E/L162R/M171V/N62H/P40V/Q125Y/R42H/S133A/S149N/S66Y/V115G/V209L/W38E); test: biochemical; assay type: binding
T10 construct: Epstein-Barr virus (EBV) transformed homozygous cell lines were used as sources; endogenous in cells; host or cells: PREISS (EBV-transformed homozygous B cell line)

[12] = molecular target: T11, DRB1*0701 (DR7) (Homo sapiens, UniProt P01903+P01911, A100R/A102G/A103Q/D57E/D86V/E43K/F76Y/K127E/L162R/M171V/P40G/Q125H/Q99D/R33Q/R42Y/R54Q/S133A/S66F/T210M/V115G/Y107V/Y59L/Y89S); test: biochemical; assay type: binding
T11 construct: Epstein-Barr virus (EBV) transformed homozygous cell lines were used as sources; endogenous in cells; host or cells: PITOUT (EBV-transformed homozygous B cell line)

[13] = molecular target: T12, DRB1*0802 (DR8w2) (Homo sapiens, UniProt P01903+P01911, A100R/A103L/A169T/F76Y/H45Y/I96F/K41T/L162R/M171V/P40S/Q125H/Q178H/Q39Y/Q99D/R218S/R42G/S66Y/V115G/W38E); test: biochemical; assay type: binding
T12 construct: Epstein-Barr virus (EBV) transformed homozygous cell lines were used as sources; endogenous in cells; host or cells: OLL (EBV-transformed homozygous B cell line)

[14] = Binding Capacity (IC50% nM) DR6w19
[15] = read-out: Binding Capacity (IC 50% nM) Other Alleles DR5w11
[16] = Binding Capacity (IC 50% nM) DR1,4,7 DRB1
[17] = Binding Capacity (IC 50% nM) Other Alleles DR4w15
[18] = Binding Capacity (IC50% nM) DR5w12
[19] = read-out: Binding Capacity (IC 50% nM) Other Alleles DR5w12
[20] = read-out: Binding Capacity (IC 50% nM) Other Alleles DR2w2b
[21] = Binding Capacity (IC 50% nM) Other Alleles DR2w2a
[22] = Binding Capacity (IC 50% nM) DR1,4,7 DR4w4
[23] = read-out: Binding Capacity (IC 50% nM) Other Alleles DR8w2
[24] = read-out: Binding Capacity (IC 50% nM) Other Alleles DR6w19
[25] = read-out: Binding Capacity (IC 50% nM) Other Alleles DR9
[26] = Binding Capacity (IC50% nM) DR7
[27] = read-out: Binding Capacity (IC 50% nM) DR1,4,7 DR7

T3 sequence (P01903 26-254, other chains not shown): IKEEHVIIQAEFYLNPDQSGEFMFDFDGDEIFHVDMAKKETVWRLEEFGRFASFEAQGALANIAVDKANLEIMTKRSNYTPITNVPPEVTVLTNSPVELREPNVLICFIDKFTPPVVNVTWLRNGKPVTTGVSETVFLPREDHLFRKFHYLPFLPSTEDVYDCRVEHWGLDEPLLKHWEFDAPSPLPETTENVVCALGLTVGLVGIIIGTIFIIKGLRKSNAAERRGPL

Compound | IC50 [1] | IC50 [2, 14] | IC50 [3, 15] | IC50 [4, 16] | IC50 [6, 17] | IC50 [7, 18] | IC50 [7, 19] | IC50 [8] | IC50 [9, 20] | IC50 [10, 21] | IC50 [11, 22] | IC50 [13, 23] | IC50 [2, 24] | IC50 [5, 25] | IC50 [12, 26] | IC50 [12, 27] | also measured
CC[C@H](C)[C@H](N)C(=O)N1CCC[C@H]1C(=O)N[C@@H](CCC(N)=O)C(=O)N[C@@H](CCC(=O)O)C(=O)N[C@@H](Cc1c[nH]c2ccccc12)C(=O)N[C@@H](CCCCN)C(=O)N1CCC[C@H]1C(=O)N[C@@H](C)C(=O)N[C@H](C(=O)N[C@H](C(=O)N[C@H](C(=O)N[C@@H](CCCCN)C(=O)N[C@H](C(=O)N[C@@H](CC(C)C)C(=O)N1CCC[C@H]1C(=O)N[C@@H](C)C(=O)O)C(C)C)C(C)C)[C@@H](C)O)[C@@H](C)CC [Peptide 1136.21] | > 1000 nM | 259 nM | > 1000 nM | < 1000 nM | < 1000 nM | > 10000 nM | > 1000 nM | > 10000 nM | > 1000 nM | < 1000 nM | < 1000 nM | > 1000 nM |  |  |  |  | IC50 ([2]; Binding Capacity (IC 50% nM) Other Alleles DR6w19): < 1000 nM; IC50 ([5]; Binding Capacity (IC 50% nM) Other Alleles DR9): < 1000 nM; IC50 ([12]; Binding Capacity (IC 50% nM) DR1,4,7 DR7): < 1000 nM
CC[C@H](C)[C@H](NC(=O)[C@H](Cc1ccccc1)NC(=O)[C@H](Cc1ccccc1)NC(=O)[C@H](CO)NC(=O)[C@H](C)NC(=O)[C@@H]1CCCN1C(=O)[C@H](Cc1ccccc1)NC(=O)[C@@H](NC(=O)[C@@H](N)C(C)C)C(C)C)C(=O)N[C@@H](CCCCN)C(=O)N[C@@H](CC(C)C)C(=O)N1CCC[C@H]1C(=O)N[C@H](C(=O)N[C@H](C(=O)N[C@@H](CC(C)C)C(=O)N[C@@H](C)C(=O)O)[C@@H](C)CC)[C@@H](C)CC [Peptide 1136.11] | > 1000 nM | > 10000 nM |  | < 1000 nM | < 1000 nM | > 10000 nM | > 1000 nM | > 10000 nM |  | < 1000 nM | < 1000 nM |  | > 1000 nM | > 1000 nM | 9610 nM | > 1000 nM | IC50 ([3]; Binding Capacity (IC 50% nM) Other Alleles DR5w11): < 1000 nM; IC50 ([9]; Binding Capacity (IC 50% nM) Other Alleles DR2w2b): < 1000 nM; IC50 ([13]; Binding Capacity (IC 50% nM) Other Alleles DR8w2): < 1000 nM
WLFPRFKFVWVTYASW [Peptide 1136.44.01] | > 1000 nM | > 10000 nM | > 1000 nM | < 1000 nM |  | > 10000 nM | > 1000 nM | > 10000 nM | > 1000 nM |  | < 1000 nM | > 1000 nM | > 1000 nM | > 1000 nM | > 10000 nM | > 1000 nM | IC50 ([3]; Binding Capacity (IC50% nM) DR5w11): 4000 nM; IC50 ([4]; Binding Capacity (IC50% nM) DR1): 526 nM; IC50 ([5]; Binding Capacity (IC50% nM) DR9): > 10000 nM; IC50 ([6]; Binding Capacity (IC50% nM) DR4w15): 6550 nM; IC50 ([6]; read-out: Binding Capacity (IC 50% nM) Other Alleles DR4w15): > 1000 nM; IC50 ([9]; Binding Capacity (IC50% nM) DR2w2b): > 10000 nM; IC50 ([10]; Binding Capacity (IC50% nM) DR2w2a): > 10000 nM; IC50 ([10]; read-out: Binding Capacity (IC 50% nM) Other Alleles DR2w2a): > 1000 nM; IC50 ([11]; Binding Capacity (IC50% nM) DR4w4): 780 nM; IC50 ([13]; Binding Capacity (IC50% nM) DR8w2): 6360 nM
